According to patent publication US20250206713A1, “2-[(2-OXO-4-PHENYL-2H-CHROMEN-7-YL)OXY] PROPANAMIDO DERIVATIVES” (LUNELLA BIOTECH, INC., priority 2022, published 2025):
“Also recorded” adds a separate entry of the source. Read-outs that look alike come from different tables or passages of the source. Each block holds one molecule with its values, some of them ahead of it.

Experiments:
MCF-7 cells [1] = tested on: MCF-7 cells
Method: (§3) The human breast adenocarcinoma cell line MCF-7 was from the American Type Culture Collection (ATCC). hTERT-BJ1 cells were from Clontech, Inc. MCF-7 and hTERT-BJ 1 cells were grown in DMEM supplemented with 10% fetal bovine serum, GlutaMAX and 1% penicillin-streptomycin and incubated at 37 C in a humidified 5% C02 incubator. The medium was changed 2-3 times/week.
(§4) The inventors initially used the sulphorhodamine (SRB) assay, which is based on the measurement of cellular protein content. After treatment for 72 hours in 96-well plates, cells were fixed with 10% trichloroacetic acid (TCA) for 1 hour in the cold room, and were dried overnight at room temperature. Then, cells were incubated with SRB for 15 min, washed twice with 1% acetic acid, and air dried for at least 1 hour. Finally, the protein-bound dye was dissolved in a 10 mM Tris, pH 8.8 solution and read using the plate reader at 540-nm. […] Prominent cytotoxicity was defined as fewer than 30% of cells still on the plate.

MCF-7 cells [2] = test: 3D anchorage independent growth assay (mammosphere formation assay); assay type: cell-based, human; conditions: for IC50: MCF-7 mammosphere formation, approximate, read from figure, read-out: IC50 against MCF-7 cells (mammosphere formation); for inhibition of MCF-7 cells across tested concentrations (mammosphere formation): in words, concentration range as given in the value; for potency relative to Compound [I], MCF-7 mammosphere formation: times / fold versus Compound [I]
Method: The medium was changed 2-3 times/week.
3D Anchorage Independent Growth Assay: This assay is also referred to as the mammosphere formation assay. A single-cell suspension was prepared using enzymatic, and manual disaggregation (25-g needle). Then, cells were plated at a density of 500 cells/cm2 in mammosphere medium (DMEM-F12+1X B-27 Plus Supplement+20 ng/ml EGF+Pen/Strep) under non-adherent conditions, in culture dishes pre-coated with (2-hydroxyethylmethacrylate) (poly-HEMA, Sigma Aldrich Inc.), called “mammosphere plates.” Cells were grown for 5 days and maintained in a humidified incubator at 37° C. After 5 days of culture, 3D-mammospheres >50 μm were counted using an eye piece (“graticule”), and the percentage of cells plated which formed spheres was calculated and is referred to as percent mammosphere formation, and was normalized to one (1=100% MFE). 3D mammosphere formation efficiency (MFE) was analyzed in both the ATP-low and ATP-high sub-populations of cells. All 3D mammosphere experiments were performed in triplicate, at least 3 times independently.

BJ1-hTERT cells [3] = tested on: BJ1-hTERT cells
Method: as §3, §4

BJ1-hTERT cells [4] = test: SRB assay (cell viability) on BJ1-hTERT cells; conditions: 72 hours
Method: as §3, §4

MCF-7 cells [5] = test: SRB assay (cell viability) on MCF-7 cells; conditions: for concentration at which cytotoxicity towards MCF-7 cells starts (SRB assay): 72 hours; for cytotoxicity towards MCF-7 cells (SRB assay): in words
Method: as §3, §4

adherent MCF7 cells [6] = test: Metabolic flux analysis, mitochondrial oxygen consumption rate (Seahorse XFe96); assay type: cell-based, human; conditions: 2.5 μM, versus vehicle-alone control
Method: (§1) FIGS. 11A-D show mitochondrial respiration, basal respiration, maximal respiration, and ATP production results for metabolic flux analysis of adherent MCF7 cells were treated with Compound [III] at 2.5 μM. After treatment, the mitochondrial oxygen consumption rate (OCR) was measured using the Seahorse XFe96 analyzer. Data is expressed as percentage of OCR versus control.

adherent MCF7 cells [7] = test: Glycolytic function analysis (ECAR); assay type: cell-based, human; conditions: 2.5 μM, versus control
Method: as §1
FIGS. 12A-D show the results of glycolytic function analysis for treatment with Compound [III] at 2.5 μM. Glycolytic function, basal glycolysis, induced glycolysis, and compensatory glycolysis, respectively. […] All data was normalized for cell number. Statistical analysis was conducted using one-way ANOVA.

[8] = tested on: MDA-MB-231 cancer cell metastasis; test: CAM assay, metastatic invasion (qPCR for Human Alu sequences in lower CAM); assay type: in vivo; conditions: MDA-MB-231, lower CAM, treated daily for 8 days, different concentrations
Method: (§2) Further evaluation of both efficacy and toxicity was performed on human breast tumors initiated from the MDA-MB-231 cell line in chicken embryos using the chick chorioallantoic membrane assay (“CAM Assay”) available from Inovotion (Cambridge, Massachusetts). […] An inoculum of 1×10^6 MDA-MB-231 cells was added onto the CAM of each egg (day E9) and then eggs were randomized into groups. On day E10, tumors were detectable and they were then treated daily for 8 days with vehicle alone (1% DMSO in PBS), or a compound of the present approach. After 8 days of drug administration, on day E18 all tumors were weighed, and the lower CAM was collected to evaluate the number of metastatic cells, as analyzed by qPCR with specific primers for Human Alu sequences.

[9] = tested on: human breast tumors initiated from the MDA-MB-231 cell line in chicken embryos; test: CAM assay, tumor growth; assay type: in vivo; conditions: MDA-MB-231 tumors, treated daily for 8 days, different concentrations
Method: as §2

chick embryo = test: CAM assay, chick embryo toxicity; assay type: in vivo, chicken; conditions: chick embryos; for Alive / Dead: of 18 total
Method: as §2

Molecule: C[C@@H](Oc1ccc2c(-c3ccc(F)cc3Cl)cc(=O)oc2c1)C(=O)N1CCC[C@H](C(=O)O)C1 [Compound [I], 3-piperidinecarboxylic acid, 1-[(2R)-2-[[4-(2-chloro-4-fluorophenyl)-2-oxo-2H-1-benzopyran-7-yl]oxy]-1-oxopropyl]-, (3S)-, reference compound]
cytotoxicity towards MCF-7 cells (SRB assay) (MCF-7 cells [1]): did not exhibit cytotoxicity
IC50 (MCF-7 cells [2]; Homo sapiens, MCF7): ~50 µM
inhibition at 100 µM (MCF-7 cells [2]; Homo sapiens, MCF7): > 50%
inhibition of MCF-7 cells (mammosphere formation) (MCF-7 cells [2]; at 5 μM): showed inhibition
cytotoxicity towards BJ1-hTERT cells (SRB assay) (BJ1-hTERT cells [3]): did not exhibit cytotoxicity

IC50 (MCF-7 cells [2]; Homo sapiens, MCF7): ~5 µM
Molecule: CCCCCCCCCCCCCC(=O)Nc1ccc(-c2cc(=O)oc3cc(O[C@H](C)C(=O)N4CCC[C@H](C(=O)O)C4)ccc23)c(Cl)c1 [Compound [II], (3S)-1-[(2R)-2-[4-[2-Chloro-4-(tetradecanoylamino)phenyl]-2-oxo-chromen-7-yl]oxypropanoyl]piperidine-3-carboxylic acid]
concentration at which cytotoxicity towards BJ1-hTERT cells starts (SRB assay) (BJ1-hTERT cells [4]): ≥ 50 µM
concentration at which cytotoxicity towards MCF-7 cells starts (SRB assay) (MCF-7 cells [5]): ≥ 50 µM
inhibition at 10 µM (MCF-7 cells [2]; Homo sapiens, MCF7, at 10 μM): > 50%
inhibition at 100 µM (MCF-7 cells [2]; Homo sapiens, MCF7): 100%
inhibition of MCF-7 cells across tested concentrations (mammosphere formation) (MCF-7 cells [2]): dose-dependent inhibition of MCF-7 cells at all tested concentrations, ranging from 0.1 μM to 100 μM
potency relative to Compound [I], MCF-7 mammosphere formation (MCF-7 cells [2]): 10

Molecule: CCCCCCCCCCCCCC(=O)Nc1ccc(-c2cc(=O)oc3cc(O[C@H](C)C(=O)N(CC)CC(=O)NCCN(C)C)ccc23)c(Cl)c1 [Compound [V], N-[3-Chloro-4-[7-[(1R)-2-[[2-[2-(dimethylamino)ethylamino]-2-oxo-ethyl]-ethyl-amino]-1-methyl-2-oxo-ethoxy]-2-oxo-chromen-4-yl]phenyl]tetradecanamide]
concentration at which cytotoxicity towards BJ1-hTERT cells starts (SRB assay) (BJ1-hTERT cells [4]): ≥ 5 µM
concentration at which cytotoxicity towards MCF-7 cells starts (SRB assay) (MCF-7 cells [5]): ≥ 5 µM
inhibition at 0.5 µM (MCF-7 cells [2]; Homo sapiens, MCF7, at 0.5 μM): > 50%
inhibition at 5 µM (MCF-7 cells [2]; Homo sapiens, MCF7, at 5 μM): 100%
inhibition of MCF-7 cells across tested concentrations (mammosphere formation) (MCF-7 cells [2]): effectively inhibited MCF-7 cells at all tested concentrations, ranging from 0.5 μM to 10 μM

Molecule: CCCCCCCCCCCCCC(=O)Nc1cc(F)ccc1-c1cc(=O)oc2cc(O[C@H](C)C(=O)N(CC)C(=O)NCCCN(C)C)ccc12 [Compound [IV], N-[2-[7-[(1R)-2-[3-(Dimethylamino)propylcarbamoyl-ethyl-amino]-1-methyl-2-oxo-ethoxy]-2-oxo-chromen-4-yl]-5-fluoro-phenyl]tetradecanamide]
concentration at which cytotoxicity towards MCF-7 cells starts (SRB assay) (MCF-7 cells [5]): ≥ 5 µM
inhibition at 2.5 µM (MCF-7 cells [2]; Homo sapiens, MCF7, at 2.5 μM): > 50%
inhibition of MCF-7 cells (mammosphere formation) (MCF-7 cells [2]; at 10 μM): near complete inhibition
inhibition of MCF-7 cells across tested concentrations (mammosphere formation) (MCF-7 cells [2]): dose-dependent inhibition of MCF-7 cells at all tested concentrations, ranging from 1 μM to 10 μM

Molecule: CCCCCCCCCCCCCC(=O)Nc1cc(F)ccc1-c1cc(=O)oc2cc(O[C@H](C)C(=O)O)ccc12 [Compound [VII], (2R)-2-[4-[4-Fluoro-2-(tetradecanoylamino)phenyl]-2-oxo-chromen-7-yl]oxypropanoic acid]
cytotoxicity towards MCF-7 cells (SRB assay) (MCF-7 cells [5]): little toxicity across the tested concentrations below 100 μM
inhibition at 1 µM (MCF-7 cells [2]; Homo sapiens, MCF7, at 1 μM): > 50%
inhibition at 100 µM (MCF-7 cells [2]; Homo sapiens, MCF7): 100%
inhibition of MCF-7 cells across tested concentrations (mammosphere formation) (MCF-7 cells [2]): inhibitory activity can be seen at all tested concentrations, from 1 μM to 100 μM

Molecule: tert-Butyl-N-[3-chloro-4-[7-[(1R)-2-[[2-[2-(dimethylamino)ethylamino]-2-oxo-ethyl]-ethyl-amino]-1-methyl-2-oxo-ethoxy]-2-oxo-chromen-4-yl]phenyl]carbamate [Compound [III]]
concentration at which cytotoxicity towards BJ1-hTERT cells starts (SRB assay) (BJ1-hTERT cells [4]): ≥ 10 µM
concentration at which cytotoxicity towards MCF-7 cells starts (SRB assay) (MCF-7 cells [5]): ≥ 10 µM
ATP production levels (adherent MCF7 cells [6]): significantly inhibited
basal OCR (basal respiration) (adherent MCF7 cells [6]): significantly inhibited
maximal OCR (maximal respiration) (adherent MCF7 cells [6]): significantly inhibited
ECAR levels (glycolysis) (adherent MCF7 cells [7]): largely comparable between the control and the demonstrative compound; also recorded: little or no effects on glycolysis
metastatic invasion (CAM assay) [8]: dose-dependent reduction in metastasis
tumor growth (CAM assay) [9]: dose-dependent reduction in tumor growth
inhibition of MCF-7 cells across tested concentrations (mammosphere formation) (MCF-7 cells [2]): dose-dependent inhibition of MCF-7 cells at all tested concentrations, ranging from 1 μM to 10 μM
potency relative to Compound [I], MCF-7 mammosphere formation (MCF-7 cells [2]): twenty-fold improvement
% Alive (chick embryo; 100 μM): 83.33%
% Dead (chick embryo; 100 μM): 16.67%
Alive (chick embryo; 100 μM): 15
Dead (chick embryo; 100 μM): 3
% Alive (chick embryo; 250 μM): 100%
% Dead (chick embryo; 250 μM): 0%
Alive (chick embryo; 250 μM): 18
Dead (chick embryo; 250 μM): 0
% Alive (chick embryo; 500 μM): 94.44%
% Dead (chick embryo; 500 μM): 5.56%
Alive (chick embryo; 500 μM): 17
Dead (chick embryo; 500 μM): 1
toxicity assessment (CAM assay) (chick embryo; in words): non-toxic towards normal cells

Molecule: CCCCCCCCCCCCCC(=O)Nc1ccc(-c2cc(=O)oc3cc(O[C@H](C)C(=O)O)ccc23)c(Cl)c1 [Compound [VI], (2R)-2-[4-[2-chloro-4-(tetradecanoylamino)phenyl]-2-oxo-chromen-7-yl]oxypropanoic acid]
cytotoxicity towards MCF-7 cells (SRB assay) (MCF-7 cells [5]): little toxicity across the tested concentrations
inhibition at 10 µM (MCF-7 cells [2]; Homo sapiens, MCF7, at 10 μM): > 50%
inhibition of MCF-7 cells across tested concentrations (mammosphere formation) (MCF-7 cells [2]): inhibitory activity can be seen at all tested concentrations, from 1 μM to 100 μM
